Measurements published in patent US20230158177A1, “HYPOXIA-TARGETING CONTRAST AGENT AND METHODS OF USE THEREOF” (Arizona Board of Regents on behalf of Arizona State …, priority 2021, published 2023).
Several values for one entry are separate records, joined by “and”; a condition that tells them apart may be missing. Identical values can stand only once.

Assays:
[1] = mouse; cited from earlier work
[2] = cited from earlier work
[3] = tested on: 3T3 fibroblast cells; experiment: In vitro hypoxia-targeting study: T1 and T2 MRI of cell pellets; assay type: cell-based; details: for Relaxation time T1 of exposed cell pellets / Relaxation time T2 of exposed cell pellets: 7 T; for contrast agent concentration in cell pellet: from the relaxivity equation for transverse relaxation rate
Description: The in vitro study for hypoxia-targeting efficiency of FOBNI was assessed in a hypoxia chamber glove box capable of adjusting oxygen concentration, temperature and CO2 and equipped with a small centrifuge unit. The 3T3 fibroblast cells were grown in a T-150 flask once they reached the confluency of 80% divided equally to five T-75 flasks to ensure the flasks were identical before being exposed to contrast agents and different conditions. The cells were supplied with Dulbecco's Modified Eagle Medium (DMEM), fetal bovine serum (10%), and penicillin/streptomycin (1%). Once the five flasks reached the confluency of 75-80% the growth media were replaced with the following mediums.
Two flasks were supplied with fresh culture media supplemented with DFOB, two with fresh media and FOBNI and one with just fresh media as control. The control and one FOB and one FOBNI labeled flasks were placed in a regular cell incubator at 21% O2, 5% CO2 and 37° C. and the remaining two flasks were transferred to the hypoxia chamber at 1% O2, 5% CO2 and 37° C. All the samples were kept at defined conditions for 4 h before removing the media. The cells were washed three times with phosphate buffered saline (PBS) at the end of four hour incubation and were detached by being exposed to trypsin for 5 min. The collected cell mixtures in Eppendorf Tube were centrifuged at 1000 rpm for 5 min and the medium was removed. Afterwards, the cell pellets were suspended in PBS and again centrifuged three times to ensure the removal of unbound or free DFOB or FOBNI. Finally, to keep the cell pellets intact the tubes were filled with low temperature liquid agar and placed in the fridge to solidify.
MR Imaging—The samples were imaged using a rat brain surface coil at 7 T. The voxel wise T1 and T2 maps of the samples were calculated using MATLAB based software and the images from Variable Repetition Time Fast Spin Echo (VTR) Sequence and multi-echo spin echo sequence, respectively. The VTR sequence was performed with TE=8 ms and thirteen TR values ranging between (205-5000 ms). The images in multi-echo sequence were acquired with TE ranging between 8-200 ms and TR=5000 ms. The field of view was 2.56 cm×2.56 cm and the matrix size of 64×64 for all the experiments. The ROI analysis to calculate the T1 and T2 values for cell pellets were performed in MATLAB.
Statistics—All results are reported as means±standard deviations (SD). For statistical comparisons unpaired t-test was employed and confidence intervals α=0.05, 95% was used between specific means.

[4] = Relaxometry: relaxivity in a water phantom at 7T; assay type: physicochemical; details: for longitudinal relaxivity r1 / transverse relaxivity r2: in water; for longitudinal relaxivity r1: slope of linear fit of R1 vs [C]; for transverse relaxivity r2: slope of linear fit of R2 vs [C]
Description: The basic paramagnetic properties i.e., relaxivity of chelated DFOB (FOB) and FOBNI was measured at 7T using a preclinical Bruker MRI scanner. The relaxivity of the two molecules were studied using a home-made 3D printed phantom capable of controlling temperature. The phantoms contained nine different concentrations of each contrast agents in water from 0-4 mM for FOB and 0-10 mM for FOBNI. The imaging parameters for this study were as matrix size 64×64, the field of view 2.56 cm×2.56 cm and TR=205-5000 ms, […] for the T1 map and TR=5000 ms, TE=8-200 ms for the T2 map. The MR images were later analyzed in a homemade MATLAB code to calculate the T1 and T2 values for each pixel. Using the T1 and T2 values for each concentration and Ri=[C]ri+Ri^0 equation the relaxivity values were calculated by a linear fit on Ri and [C]. Where Ri (i=1 or 2) is the relaxation rate of the tissue, [C] is the concentration of the contrast agent, ri is the relaxivity of the contrast agent and the Ri^0 is the intrinsic relaxation rate of the water. FIG. 7A and FIG. 7B show the T1 and T2 maps for the phantom and a concentration map indicating the concentrations of FOB and FOBNI in each respective well.
FIG. 8 represents the result of the linear fit for R1 and R2 for the two contrast agents. […] Using the linear fit function, the following equations are acquired for relaxation rate vs concentration, R1=(2.06±0.06)[C]+(0.49±0.04) (in red) and R2=(2.75±0.06)[C]+(3.75±0.08) (in gray) for FOB and R1=(0.51±0.1)[C]+(0.44±0.03) (in red) and R2=(4.51±0.14)[C]+(3.87±0.19) (in gray) for FOBNI.

[5] = tested on: NIH-3T3 fibroblast cells; experiment: Cytotoxicity: cell viability assay using Alamar blue; assay type: cell-based; details: for cell viability (Alamar blue): hypoxic and normoxic conditions
Description: To study the cytotoxicity of DFOB, NIH-3T3 fibroblast cells were used. The cells were exposed to different concentrations of DFOB for 4, 8, and 24 h under either hypoxic or normoxic conditions. Afterwards, the cells were washed with PBS and exposed to 10% Alamar blue in media for 4 h in their respective conditions. To assess the viability of the cells 100 µl of the exposed Alamar blue was collected in a 96-well plate using the spectrophotometer the absorbance was measured at 570 nm and 600 nm excitations and the viability of the cells was calculated.
Cytotoxicity assay for FOBNI was a viability test using Alamar blue. The results are summarized in FIG. 5 for normoxic conditions and FIG. 6 for hypoxic conditions. […] The increased viability, which is a translation of reduced Alamar blue in control samples of 8 h and 24 h can be attributed to the increased number of the cells in the control wells. After seeding the cells the cell number in the control wells could increase and that can influence the amount of reduced compound in absorbance test.

[6] = hypoxic (H), 1% O2, 4 h exposure
[7] = normoxic (N), 21% O2, 4 h exposure

Row | Molecule | circulation half-time [1] | cell permeability [2] | Relaxation time T1 of exposed cell pellets [3, 6] [ms] | Relaxation time T2 of exposed cell pellets [3, 6] [ms] | contrast agent concentration in cell pellet ([3]; hypoxic) [mM] | Relaxation time T1 of exposed cell pellets [3, 7] [ms] | Relaxation time T2 of exposed cell pellets [3, 7] | contrast agent concentration in cell pellet ([3]; normoxic) [mM] | longitudinal relaxivity r1 [4] | transverse relaxivity r2 [4] | increase in pellet concentration, FOBNI vs FOB ([3]; hypoxic condition) [fold] | cellular uptake after addition of nitroimidazole moiety ([3]; vs FOB, seen in T2 values under normoxic conditions) | decrease in r1 value compared to FOB [4] | cell viability (Alamar blue) ([5]; 100-400 μM, up to 24 h exposure, control of the 4 h exposure used, n=3) | cell viability (Alamar blue) ([5]; after 8 h and 24 h of exposure, control of each time point used) | cytocompatibility (cell viability assay) ([5]; up to 8 h of direct exposure to the cells)
1 | CC(=O)N(O)CCCCCNC(=O)CCC(=O)N(O)CCCCCNC(=O)CCC(=O)N(O)CCCCCN [DFOB, Deferoxamine B] | about 5 min | very low cell permeability |  |  |  |  |  |  |  |  |  |  |  |  |  | 
2 | CC(=O)N([O-])CCCCCNC(=O)CCC(=O)N([O-])CCCCCNC(=O)CCC(=O)N([O-])CCCCCN.[Fe+3] [FOB, Feroxamine B, reference compound] |  |  | 2002 ± 143 | 75.5 ± 15.0 | 3.45 | 2280 ± 222 | 89.9 ± 11.21 ms and 89.9 ± 11.2 ms | 2.67 | 2.06 ± 0.06 L/s/mmol | 2.75±0.06 |  |  |  |  |  | 
3 | Feroxamine B conjugate of 2-nitroimidazole [FOBNI] |  |  | 1909 ± 162 | 32.4 ± 3.4 | 5.98 | 1793 ± 165 | 59.3 ± 9.3 ms | 2.88 | 0.51 L/s/mmol and 0.51 ± 0.1 L/s/mmol | 4.51±0.14 | 1.73 | increased the cellular uptake | about 75% | no significant reduction | significant drop in cell viability | cytocompatibility
